Key:
p38-α = target: T1, p38-α (Homo sapiens, UniProt Q16539); assay: p38 kinase assay, p38-α with peptide substrate (Caliper LabChip); assay type: biochemical; details: read-out: IC50 p38a*peptide
T1 construct: purchased Millipore
Protocol: Alternatively, p38 kinase assays were performed in a reaction volume of 70 µL in a 384-well plate, at 30° for […] under the following conditions: 50 mM Hepes, pH 7.4, 10 mM MgCl2, 1 mg/ml FA Free BSA, 1 mM DTT, 10 μM ATP, 10 μM p38 peptide [Caliper Life Sciences FL-Peptide 8 (5-FAM-IPTSPITTTYFFEKKK-COOH)] and 5.7 nM p38-α (Millipore), or 14.3 nM unactivated MAPKAP kinase-2, 0.18 nM p38-α (Millipore) and 2 uM RSK peptide [Caliper Life Sciences FL-Peptide 11 (5-FAM-KKLNRTLSVA-COOH)]. Serial dilutions of compounds were added to each reaction in 700 nL DMSO. 700 nL of DMSO was added to the control wells of the reaction plate as the no inhibitor control for each inhibitor titration. The reaction was terminated by the addition of 15 μL of a 100 mM EDTA. Product formation was analyzed using the Caliper LabChip 3000. The Separation buffer contained 100 mM HEPES pH 7.5, 0.015% Brij-35, 2.5% Coating Reagent #3 (Caliper Life Sciences) and 10 mM EDTA. Calculation of the substrate product ratios are performed using the HTS Well Analyzer software provided by Caliper Life Sciences and the percent inhibition at each compound concentration is determined.

hWB = assay: IC50 hWB (TNF-α release assay); assay type: cell-based; details: Homo sapiens

T1 sequence (Q16539 whole entry): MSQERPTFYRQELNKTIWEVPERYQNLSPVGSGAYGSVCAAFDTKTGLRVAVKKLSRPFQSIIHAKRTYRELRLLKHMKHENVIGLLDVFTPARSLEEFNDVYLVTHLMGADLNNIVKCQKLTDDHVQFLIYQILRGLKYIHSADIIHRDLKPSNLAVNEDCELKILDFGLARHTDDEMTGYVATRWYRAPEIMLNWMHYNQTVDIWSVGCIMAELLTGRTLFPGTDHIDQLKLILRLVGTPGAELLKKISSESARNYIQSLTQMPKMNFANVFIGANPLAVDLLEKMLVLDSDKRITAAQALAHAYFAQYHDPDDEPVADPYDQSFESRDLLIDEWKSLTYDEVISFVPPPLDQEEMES

Row | SMILES | IC50 (p38-α) [nM] | IC50 (hWB) [nM]
1 | O=C(NCc1nnc(-c2ccccn2)s1)c1cc(Cc2c(F)cc(F)cc2F)c[nH]1 [Example 44, N-[(5-pyridin-2-yl-1,3,4-thiadiazol-2-yl)methyl]-4-(2,4,6-trifluorobenzyl)-1H-pyrrole-2-carboxamide] | 555 | 
2 | O=C(NCc1nnc(-c2cn[nH]n2)s1)c1cc(C(=O)c2c(F)cc(F)cc2F)c[nH]1 [Example 34, N-{[5-(2H-1,2,3-triazol-4-yl)-1,3,4-thiadiazol-2-yl]methyl}-4-(2,4,6-trifluorobenzoyl)-1,1-pyrrole-2-carboxamide] | 180 | 
3 | O=C(NCc1nnc(-c2cccc(F)c2)s1)c1cc(C(=O)c2c(F)cc(F)cc2F)c[nH]1 [Example 9, N {[5-(3-fluorophenyl)-1,3,4-thiadiazol-2-yl]methyl}-4-(2,4,6-trifluorobenzoyl)-1H-pyrrole-2-carboxamide] | 462 | 3490
4 | O=C(NCc1nnc(-c2ccc(F)cc2)s1)c1cc(C(=O)c2c(F)cc(F)cc2F)c[nH]1 [Example 8, N-{[5-(4-fluorophenyl)-1,3,4-thiadiazol-2-yl]methyl}-4-(2,4,6-trifluorobenzoyl)-1H-pyrrole-2-carboxamide] | 50 | 1000
5 | CC(C)c1cc(-c2nnc(CNC(=O)c3cc(C(=O)c4c(F)cc(F)cc4F)c[nH]3)s2)[nH]n1 [Example 25, N-{[5-(3-isopropyl-1H-pyrazol-5-yl)-1,3,4-thiadiazol-2-yl]methyl}-4-(2,4,6-trifluorobenzoyl)-1H-pyrrole-2-carboxamide] | 10 | 90
6 | COc1ccc(-c2nnc(CNC(=O)c3cc(C(=O)c4c(F)cc(F)cc4F)c[nH]3)s2)cn1 [Example 17, N-{[5-(6-methoxypyridin-3-yl)-1,3,4-thiadiazol-2-yl]methyl}-4-(2,4,6-trifluorobenzoyl)-1H-pyrrole-2-carboxamide] | 78 | 2820
7 | O=C(NCc1nnc(-c2ccco2)s1)c1cc(C(=O)c2c(F)cc(F)cc2F)c[nH]1 [Example 15, N-{[5-(2-furyl)-1,3,4-thiadiazol-2-yl]methyl}-4-(2,4,6-trifluorobenzoyl)-1H-pyrrole-2-carboxamide] | 98 | 614
8 | O=C(NCc1nnc(C2CCCC2)s1)c1cc(C(=O)c2c(F)cc(F)cc2F)c[nH]1 [Example 6, N-[(5-cyclopentyl-1,3,4-thiadiazol-2-yl)methyl]-4-(2,4,6-trifluorobenzoyl)-1H-pyrrole-2-carboxamide] | 1510 | 2870
9 | O=C(NCc1nnc(-c2ccccn2)s1)c1cc(C(=O)c2c(F)cc(F)cc2F)c[nH]1 [Example 12, N-[(5-pyridin-2-yl-1,3,4-thiadiazol-2-yl)methyl]-4-(2,4,6-trifluorobenzoyl)-1H-pyrrole-2-carboxamide] | 66 | 570
10 | O=C(NCc1nnc(-c2c(F)cccc2F)s1)c1cc(C(=O)c2c(F)cc(F)cc2F)c[nH]1 [Example 11, N-{[5-(2,6-difluorophenyl)-1,3,4-tbiadiazol-2-yl]methyl}-4-(2,4,6-trifluorobenzoyl)-1H-pyrrole-2-carboxamide] | 276 | 2850
11 | Cc1cc(-c2nnc(CNC(=O)c3cc(Cc4c(F)cc(F)cc4F)c[nH]3)s2)[nH]n1 [Example 46, N-{[5-(3-methyl-1H-pyrazol-5-yl)-1,3,4-thiadiazol-2-yl]methyl}-4-(2,4,6-trifluorobenzyl)-1H-pyrrole-2-carboxamide] | 243 | 3270
12 | CC(C)Cc1cc(-c2nnc(CNC(=O)c3cc(C(=O)c4c(F)cc(F)cc4F)c[nH]3)s2)[nH]n1 [Example 26, N-{[5-(3-isobutyl-1H-pyrazol-5-yl)-1,3,4-thiadiazol-2-yl]methyl}-4-(2,4,6-trifluorobenzoyl)-1H-pyrrole-2-carboxamide] | 24 | 163
13 | Cc1cc(-c2nnc(CNC(=O)c3cc(C(=O)c4c(F)cc(F)cc4F)c[nH]3)s2)nn1C [Example 33, N-{[5-(1,5-dimethyl-1H-pyrazol-3-yl)-1,3,4-thiadiazol-2-yl]methyl}-4-(2,4,6-trifluorobenzoyl)-1H-pyrrole-2-carboxamide] | 35.1 | 
14 | O=C(NCc1nnc(-c2cc(C(F)(F)F)n[nH]2)s1)c1cc(C(=O)c2c(F)cc(F)cc2F)c[nH]1 [Example 27, 4-(2,4,6-trifluorobenzoyl)-N-({5-[3-(trifluoromethyl)-1H-pyrazol-5-yl]-1,3,4-thiadiazol-2-yl}methyl)-1H-pyrrole-2-carboxamide] | 1400 | 
15 | O=C(NCc1nnc(C2CCC2)s1)c1cc(C(=O)c2c(F)cc(F)cc2F)c[nH]1 [Example 22, N-[(5-cyclobutyl-1,3,4-thiadiazol-2-yl)methyl]-4-(2,4,6-trifluorobenzoyl)-1H-pyrrole-2-carboxamide] | 489 | 
16 | O=C(NCc1nnc(-c2[nH]nc3c2CCC3)s1)c1cc(C(=O)c2c(F)cc(F)cc2F)c[nH]1 [Example 31, N-{[5-(2,4,5,6-tetrahydrocyclopenta[c]pyrazol-3-yl)-1,3,4-thiadiazol-2-yl]methyl}-4-(2,4,6-trifluorobenzoyl)-1H-pyrrole-2-carboxamide] | 36 | 
17 | CC1(c2nnc(CNC(=O)c3cc(C(=O)c4c(F)cc(F)cc4F)c[nH]3)s2)CC1 [Example 23, N-{[5-(1-methylcyclopropyl)-1,3,4-thiadiazol-2-yl]methyl}-4-(2,4,6-trifluorobenzoyl)-1H-pyrrole-2-carboxamide] | 826 | 
18 | CCOc1ncccc1-c1nnc(CNC(=O)c2cc(C(=O)c3c(F)cc(F)cc3F)c[nH]2)s1 [Example 16, N-{[5-(2-ethoxypyridin-3-yl)-1,3,4-thiadiazol-2-yl]methyl}-4-(2,4,6-trifluorobenzoyl)-1H-pyrrole-2-carboxamide] | 135 | 
19 | O=C(NCc1nnc(-c2ccc(=O)[nH]c2)s1)c1cc(C(=O)c2c(F)cc(F)cc2F)c[nH]1 [Example 36, N-{[5-(6-oxo-1,6-dihydropyridin-3-yl)-1,3,4-thiadiazol-2-yl]methyl}-4-(2,4,6-trifluorobenzoyl)-1H-pyrrole-2-carboxamide] | 70.4 | 
20 | O=C(NCc1nnc(-c2cccc(=O)[nH]2)s1)c1cc(C(=O)c2c(F)cc(F)cc2F)c[nH]1 [Example 37, N-{[5-(6-oxo-1,6-dihydropyridin-2-yl)-1,3,4-thiadiazol-2-yl]methyl}-4-(2,4,6-trifluorobenzoyl)-1H-pyrrole-2-carboxamide] | 173 | 
21 | COc1cc(-c2nnc(CNC(=O)c3cc(C(=O)c4c(F)cc(F)cc4F)c[nH]3)s2)ccn1 [Example 19, N-{[5-(2-methoxypyridin-4-yl)-1,3,4-thiadiazol-2-yl]methyl}-4-(2,4,6-trifluorobenzoyl)-1H-pyrrole-2-carboxamide] | 85 | 
22 | CC(C)(C)c1nnc(CNC(=O)c2cc(C(=O)c3c(F)cc(F)cc3F)c[nH]2)s1 [Example 5, N-[(5-tert-butyl-1,3,4-thiadiazol-2-yl)methyl]-4-(2,4,6-trifluorobenzoyl)-1H-pyrrole-2-carboxamide] | 608 | 
23 | O=C(NCc1nnc(-c2cc[nH]c(=O)c2)s1)c1cc(C(=O)c2c(F)cc(F)cc2F)c[nH]1 [Example 38, N-{[5-(2-oxo-1,2-dihydropyridin-4-yl)-1,3,4-thiadiazol-2-yl]methyl}-4-(2,4,6-trifluorobenzoyl)-1H-pyrrole-2-carboxamide] | 26.9 | 
24 | COc1cccc(-c2nnc(CNC(=O)c3cc(C(=O)c4c(F)cc(F)cc4F)c[nH]3)s2)n1 [Example 18, N-{[5-(6-methoxypyridin-2-yl)-1,3,4-thiadiazol-2-yl]methyl}-4-(2,4,6-trifluorobenzoyl)-1H-pyrrole-2-carboxamide] | 94 | 
25 | CC(C)c1nnc(CNC(=O)c2cc(C(=O)c3c(F)cc(F)cc3F)c[nH]2)s1 [Example 3, N-[(5-isopropyl-1,3,4-thiadiazol-2-yl)methyl]-4-(2,4,6-trifluorobenzoyl)-1-H-pyrrole-2-carboxamide] | 479 | 
26 | O=C(NCc1nnc(-c2csnn2)s1)c1cc(C(=O)c2c(F)cc(F)cc2F)c[nH]1 [Example 30, N-{[5-(1,2,3-thiadiazol-4-yl)-1,3,4-thiadiazol-2-yl]methyl}-4-(2,4,6-trifluorobenzoyl)-1H-pyrrole-2-carboxamide] | 634 | 
27 | Cc1nnc(CNC(=O)c2cc(C(=O)c3ccc(F)cc3F)c[nH]2)s1 [Example 39, 4-(2,4-difluorobenzoyl)-N-[(5-methyl-1,3,4-thiadiazol-2-yl)methyl]-1H-pyrrole-2-carboxamide] | 222 | 
28 | COc1ccc(-c2nnc(CNC(=O)c3cc(C(=O)c4c(F)cc(F)cc4F)c[nH]3)s2)cc1 [Example 10, N-{[5-(4-methoxyphenyl)-1,3,4-thiadiazol-2-yl]methyl}-4-(2,4,6-trifluorobenzoyl)-1H-pyrrole-2-carboxamide] | 31 | 
29 | CCC(C)c1nnc(CNC(=O)c2cc(C(=O)c3c(F)cc(F)cc3F)c[nH]2)s1 (stereo not shown) [Example 24, N-[(5-sec-butyl-1,3,4-thiadiazol-2-yl)methyl]-4-(2,4,6-trifluorobenzoyl)-1H-pyrrole-2-carboxamide] | 1020 | 
30 | Cc1nnc(CNC(=O)c2cc(C(=O)c3c(F)cccc3F)c[nH]2)s1 [Example 40, 4-(2,6-difluorobenzoyl)-N-[(5-methyl-1,3,4-thiadiazol-2-yl)methyl]-1H-pyrrole-2-carboxamide] | 150 | 
